US20090124640A1, “Pyrrolo[3,2-D]Pyrimidin-4-One Derivative as Myeloperoxidase Inhibitor” (ASTRAZENECA AB, priority 2006, published 2009)

Molecular target: T1, human MPO (Homo sapiens, UniProt P05164)
T1 sequence (P05164 49-745): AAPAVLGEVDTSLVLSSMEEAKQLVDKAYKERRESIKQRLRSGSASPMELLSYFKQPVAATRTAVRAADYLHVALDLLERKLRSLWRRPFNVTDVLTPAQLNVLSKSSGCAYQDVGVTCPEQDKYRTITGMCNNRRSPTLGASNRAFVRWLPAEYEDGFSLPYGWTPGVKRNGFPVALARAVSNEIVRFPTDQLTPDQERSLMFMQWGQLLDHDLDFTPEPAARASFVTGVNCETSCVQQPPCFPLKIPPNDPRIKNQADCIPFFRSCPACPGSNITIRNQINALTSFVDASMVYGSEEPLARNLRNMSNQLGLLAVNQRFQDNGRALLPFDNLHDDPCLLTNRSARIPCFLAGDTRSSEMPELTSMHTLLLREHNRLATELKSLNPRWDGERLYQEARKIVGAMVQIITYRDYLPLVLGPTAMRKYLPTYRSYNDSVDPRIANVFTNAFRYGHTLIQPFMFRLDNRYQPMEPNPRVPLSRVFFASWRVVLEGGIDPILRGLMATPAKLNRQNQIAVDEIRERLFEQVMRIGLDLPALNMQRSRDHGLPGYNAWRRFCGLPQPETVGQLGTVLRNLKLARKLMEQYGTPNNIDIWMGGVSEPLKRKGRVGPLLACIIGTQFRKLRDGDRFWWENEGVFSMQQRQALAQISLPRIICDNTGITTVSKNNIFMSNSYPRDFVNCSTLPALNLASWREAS
Assay: MPO inhibition screen (TMB oxidation, absorbance)
Type: biochemical
Settings: at least one version of the screen (compound alone or with added tyrosine, 8 μM final); human MPO 2.5 nM, H2O2 100 μM, pH 6.5
Experimental: Methods for the determination of MPO inhibitory activity are disclosed in patent application WO 02/090575. The pharmacological activity of compounds according to the invention was tested in the following screen in which the compound was either tested alone or in the presence of added tyrosine:
Assay buffer: 20 mM sodium/potassium phosphate buffer pH 6.5 containing 10 mM taurine and 100 mM NaCl.
Developing reagent: 2 mM 3,3′,5,5′-tetramethylbenzidine (TMB), 200 μM KI, 200 mM acetate buffer pH 5.4 with 20% DMF.
To 10 μl of diluted compounds in assay buffer, 40 μL of human MPO (final concentration 2.5 nM), with or without 20 μM tyrosine (final concentration, if present, 8 μM), was added and the mixture was incubated for 10 minutes at ambient temperature. Then 50 μl of H2O2 (final concentration 100 μM), or assay buffer alone as a control, were added. After incubation for 10 minutes at ambient temperature, the reaction was stopped by adding 10 μl 0.2 mg/ml of catalase (final concentration 18 μg/ml). The reaction mixture was left for an additional 5 minutes before 100 μl of TMB developing reagent was added. The amount of oxidised 3,3′,5,5′-tetramethylbenzidine formed was then measured after about 5 minutes using absorbance spectroscopy at about […]. IC50 values were then determined using standard procedures.

IC50: < 5 µM
SMILES: O=c1[nH]c(=S)n(CCO)c2cc[nH]c12 [Example 1, 1-(2-Hydroxyethyl)-2-thioxo-1,2,3,5-tetrahydro-4H-pyrrolo[3,2-d]pyrimidin-4-one]
